biological target: T1, Human CaV2.2 channels (Homo sapiens, UniProt Q00975); assay: Fluorescence assay for CaV2.2 channels using potassium depolarization to induce channel opening (FLIPR, Fluo 4); type: cell-based; conditions: 3 μM test compound, 30 mM KCl assay buffer (inactivated channel state), HEK293 cells
T1 construct: expressed in transfected cells; Kir2.3 also stably co-expressed
Outline: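 HEK293 cells stably co-expressing human CaV2.2 with α2δ and β subunits plus Kir2.3, Fluo-4 loaded; compounds preincubated 15 min at 25 °C in 1 mM or 30 mM KCl buffer (inactivated state), pH 7.4. Depolarized by KCl addition; baseline-normalized peak fluorescence (ex 480/em 535 nm) gave inhibition.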

T1 sequence (Q00975 whole entry): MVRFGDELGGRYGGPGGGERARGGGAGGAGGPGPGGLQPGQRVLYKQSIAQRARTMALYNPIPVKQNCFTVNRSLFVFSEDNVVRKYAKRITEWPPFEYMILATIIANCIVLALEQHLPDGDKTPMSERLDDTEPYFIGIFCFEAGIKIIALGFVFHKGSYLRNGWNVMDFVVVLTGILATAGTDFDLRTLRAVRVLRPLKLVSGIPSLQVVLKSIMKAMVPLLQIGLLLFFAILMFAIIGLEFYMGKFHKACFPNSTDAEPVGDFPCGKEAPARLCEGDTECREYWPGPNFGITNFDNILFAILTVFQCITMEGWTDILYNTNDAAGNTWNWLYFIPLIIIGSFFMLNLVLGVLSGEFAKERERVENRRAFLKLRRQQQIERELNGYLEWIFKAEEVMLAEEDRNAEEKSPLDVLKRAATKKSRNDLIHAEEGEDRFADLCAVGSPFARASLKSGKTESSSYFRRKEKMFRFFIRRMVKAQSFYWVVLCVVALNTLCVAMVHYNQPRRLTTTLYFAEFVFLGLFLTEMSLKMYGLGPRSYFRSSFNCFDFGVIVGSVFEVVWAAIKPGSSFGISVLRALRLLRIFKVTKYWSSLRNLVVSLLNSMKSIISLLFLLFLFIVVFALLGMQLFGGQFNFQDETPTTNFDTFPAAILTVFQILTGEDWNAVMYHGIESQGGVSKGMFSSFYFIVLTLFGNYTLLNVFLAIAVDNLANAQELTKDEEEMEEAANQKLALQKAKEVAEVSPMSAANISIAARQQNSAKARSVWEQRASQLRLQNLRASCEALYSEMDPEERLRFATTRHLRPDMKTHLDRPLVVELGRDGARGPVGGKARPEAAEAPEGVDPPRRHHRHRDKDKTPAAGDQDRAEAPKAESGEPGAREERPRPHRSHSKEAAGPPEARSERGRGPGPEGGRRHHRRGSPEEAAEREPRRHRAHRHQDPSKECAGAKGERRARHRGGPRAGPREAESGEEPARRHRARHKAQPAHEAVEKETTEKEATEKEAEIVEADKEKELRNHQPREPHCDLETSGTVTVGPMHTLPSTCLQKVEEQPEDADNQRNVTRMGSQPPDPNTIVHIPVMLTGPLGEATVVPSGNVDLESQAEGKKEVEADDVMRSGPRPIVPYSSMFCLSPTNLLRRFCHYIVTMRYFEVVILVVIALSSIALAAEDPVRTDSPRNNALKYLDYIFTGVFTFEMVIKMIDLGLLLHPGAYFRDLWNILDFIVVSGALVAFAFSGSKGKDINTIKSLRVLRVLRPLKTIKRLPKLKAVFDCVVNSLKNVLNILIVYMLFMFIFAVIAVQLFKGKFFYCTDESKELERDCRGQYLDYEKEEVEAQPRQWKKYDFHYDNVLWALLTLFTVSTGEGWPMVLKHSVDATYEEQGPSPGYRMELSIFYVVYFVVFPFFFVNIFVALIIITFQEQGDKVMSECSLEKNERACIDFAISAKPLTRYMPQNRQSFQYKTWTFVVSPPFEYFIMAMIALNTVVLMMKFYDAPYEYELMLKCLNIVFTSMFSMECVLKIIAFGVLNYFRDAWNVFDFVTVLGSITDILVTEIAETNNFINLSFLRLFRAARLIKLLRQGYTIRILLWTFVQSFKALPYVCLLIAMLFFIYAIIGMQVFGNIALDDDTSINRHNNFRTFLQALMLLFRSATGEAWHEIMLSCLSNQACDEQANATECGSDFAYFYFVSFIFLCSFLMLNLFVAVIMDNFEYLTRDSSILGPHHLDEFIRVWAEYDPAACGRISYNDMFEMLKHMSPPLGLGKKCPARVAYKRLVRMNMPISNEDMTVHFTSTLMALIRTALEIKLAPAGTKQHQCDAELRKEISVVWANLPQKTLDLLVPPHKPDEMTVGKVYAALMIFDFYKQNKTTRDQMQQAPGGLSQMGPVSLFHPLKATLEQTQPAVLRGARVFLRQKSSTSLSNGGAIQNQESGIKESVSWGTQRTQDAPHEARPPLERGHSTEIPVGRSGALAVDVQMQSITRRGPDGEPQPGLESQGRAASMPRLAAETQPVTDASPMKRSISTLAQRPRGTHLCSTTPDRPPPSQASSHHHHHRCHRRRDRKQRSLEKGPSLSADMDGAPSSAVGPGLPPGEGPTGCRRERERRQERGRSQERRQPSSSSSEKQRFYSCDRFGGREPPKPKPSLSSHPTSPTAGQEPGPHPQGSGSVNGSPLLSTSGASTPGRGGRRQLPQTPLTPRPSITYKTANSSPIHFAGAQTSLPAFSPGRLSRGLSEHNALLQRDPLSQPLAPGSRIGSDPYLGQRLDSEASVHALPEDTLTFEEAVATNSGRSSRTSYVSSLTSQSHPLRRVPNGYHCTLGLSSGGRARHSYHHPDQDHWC

Row | Structure (SMILES) | Activity Category: %-Inhib (CaV2.2) @3 μM @30 mM KCl
1 | O=S(=O)(c1cccc(C(F)(F)F)c1)C1CCOC(c2ccc(Cl)cc2)C1 (stereo not drawn) [SC-402, 2-(4-Chlorophenyl)-4-[[3-(trifluoromethyl)phenyl]sulfonyl]-tetrahydro-pyran] | A (%-Inhibition >95%)
2 | CC1(S(=O)(=O)c2cccc(C(F)F)c2)CCOC(c2ccc(S(C)(=O)=O)cc2F)C1 (stereo not drawn) [SC-510, 4-[[3-(Difluoro-methyl)-phenyl]sulfonyl]-2-(2-fluoro-4-methylsulfonyl-phenyl)-4-methyl-tetrahydro-pyran] | A (%-Inhibition >95%)
3 | CC1(S(=O)(=O)c2cccc(C3CC3)c2)CCOC(c2ccc(S(C)(=O)=O)cc2F)C1 (stereo not drawn) [SC-513, 4-[(3-Cyclopropyl-phenyl)sulfonyl]-2-(2-fluoro-4-methylsulfonyl-phenyl)-4-methyl-tetrahydro-pyran] | A (%-Inhibition >95%)
4 | CC1(S(=O)(=O)c2cccc(OC(F)F)c2)CCOC(c2ccc(S(C)(=O)=O)cc2F)C1 (stereo not drawn) [SC-516, 4-[[3-(Difluoro-methoxy)-phenyl]sulfonyl]-2-(2-fluoro-4-methylsulfonyl-phenyl)-4-methyl-tetrahydro-pyran] | C (%-Inhibition >40% up to ≦75%)
5 | CC1(S(=O)(=O)c2cccc(OC(F)F)c2)CCOC(c2ccc(S(C)(=O)=O)cc2F)C1 (stereo not drawn) [SC-517, 4-[[3-(Difluoro-methoxy)-phenyl]sulfonyl]-2-(2-fluoro-4-methylsulfonyl-phenyl)-4-methyl-tetrahydro-pyran] | B (%-Inhibition >75% up to ≦95%)
6 | CC1(S(=O)(=O)c2cc(F)cc(C(F)(F)F)c2)CCOC(c2ccc(S(C)(=O)=O)cc2F)C1 (stereo not drawn) [SC-519, 2-(2-Fluoro-4-methylsulfonyl-phenyl)-4-[[3-fluoro-5-(trifluoromethyl)-phenyl]sulfonyl]-4-methyl-tetrahydro-pyran] | A (%-Inhibition >95%)

same assay, conditions: HEK293, 3 μM test compound, 30 mM KCl assay buffer (inactivated channel state), HEK293 cells; read-out: Activity Category: %-Inhib (CaV2.2) @3 μM @30 mM KCl

Row | Structure (SMILES) | inhibition at 3 µM [%]
7 | CC(C)Oc1cccc(S(=O)(=O)C2(C)CCOC(c3ccc(S(C)(=O)=O)cc3F)C2)c1 (stereo not drawn) [SC-500, 2-(2-Fluoro-4-methylsulfonyl-phenyl)-4-[(3-isopropoxy-phenyl)sulfonyl]-4-methyl-tetrahydro-pyran] | 75 to 95
8 | CC1(S(=O)(=O)c2cccc(OC(F)(F)F)c2)CCOC(c2ccc(S(C)(=O)=O)cc2F)C1 (stereo not drawn) [SC-502, 2-(2-Fluoro-4-methylsulfonyl-phenyl)-4-methyl-4-[[3-(trifluoromethyloxy)-phenyl]sulfonyl]-tetrahydro-pyran] | > 95
9 | CC(C)c1cccc(S(=O)(=O)C2(C)CCOC(c3ccc(S(C)(=O)=O)cc3F)C2)c1 (stereo not drawn) [SC-506, 2-(2-Fluoro-4-methylsulfonyl-phenyl)-4-[(3-isopropyl-phenyl)sulfonyl]-4-methyl-tetrahydro-pyran] | > 95
10 | CC1(S(=O)(=O)c2cccc(C(F)F)c2)CCOC(c2ccc(S(C)(=O)=O)cc2F)C1 (stereo not drawn) [SC-509, 4-[[3-(Difluoro-methyl)-phenyl]sulfonyl]-2-(2-fluoro-4-methylsulfonyl-phenyl)-4-methyl-tetrahydro-pyran] | 75 to 95
11 | CC1(S(=O)(=O)c2cccc(C3CC3)c2)CCOC(c2ccc(S(C)(=O)=O)cc2F)C1 (stereo not drawn) [SC-512, 4-[(3-Cyclopropyl-phenyl)sulfonyl]-2-(2-fluoro-4-methylsulfonyl-phenyl)-4-methyl-tetrahydro-pyran] | 75 to 95
12 | CC1(S(=O)(=O)c2cc(F)cc(C(F)(F)F)c2)CCOC(c2ccc(S(C)(=O)=O)cc2F)C1 (stereo not drawn) [SC-518, 2-(2-Fluoro-4-methylsulfonyl-phenyl)-4-[[3-fluoro-5-(trifluoromethyl)-phenyl]sulfonyl]-4-methyl-tetrahydro-pyran] | 75 to 95

— patent US9896440B2, “Aryl substituted heterocyclyl sulfones” (GRÜNENTHAL GMBH, priority 2014, dated 2018)
